Laboratory results: paper PMC8305389, “Tuning Photodynamic Properties of BODIPY Dyes, Porphyrins’ Little Sisters” (Molecules, 2021)
Marks after values point to notes of the source that are not given here.

What was measured:
[1] = system: human melanoma (SK-MEL-28) cells; assay: Photodynamic activity (phototoxicity) after light activation, Neutral Red uptake; format: cell-based; conditions: for EC50: Homo sapiens, light or radiation study, 12 h incubation, λ > 455 nm, 15.3 mW cm−2, 15 min, 13.7 J cm−2
Procedure: (§1) The human cervical carcinoma (HeLa) and human melanoma (SK-MEL-28) cell lines were purchased from the American Type Cell Culture Collection (ATCC; Manassas, VA, USA). Both cell lines were cultured in Dulbecco’s modified Eagle’s medium (DMEM) without phenol red (Lonza, Verviers, Belgium) and supplemented with 10% heat-inactivated fetal bovine serum (Sigma-Aldrich (Merck, Darmstadt, Germany), 1% penicillin/streptomycin solution (Lonza), 10 mM HEPES buffer (Lonza), and 4 mM ultraglutamine I (alanyl-L-glutamine; Lonza). The cell lines were cultured in 75 cm^2 tissue culture flasks (TPP, Trasadingen, Switzerland) and maintained in a CO2 incubator at 37 °C in a humidified atmosphere of 5% CO2 and subcultured every 3−4 days. For the cytotoxicity experiments (phototoxicity and dark toxicity), cells were seeded into 96-well plates (TPP) at a density of 7.5 × 10^3 (HeLa and SK-MEL-28) cells per well for 24 h.
(§2) Stock solutions of the investigated compounds were prepared in DMSO at a concentration of 0.5 mM (4b) or 1 mM (all other compounds) and were sterilized by filtration through 0.22 μm syringe MCE filters. The stock solutions were diluted by the above-mentioned cell culture medium to the required concentrations. The maximum DMSO concentration in the medium in the experiments was 1% (2% in case of cpd. 4b). Cytoxicity of DMSO at corresponding concentrations (without studied compounds) was assessed in all cytotoxicity experiments as well—no toxicity against SK-MEL-28 or HeLa cells was observed.
(§3) For the photodynamic activity assessment experiments (phototoxicity), both HeLa and SK-MEL-28 cells were incubated overnight (12 h) with the studied compounds. The cells were then carefully and swiftly washed twice with a prewarmed sterile phosphate-buffered saline, fresh cell culture medium was added, and cells were subsequently irradiated for 15 min using a 450 W ozone-free Xe lamp (Newport; intensity reduced to 400 W). The lamp was equipped with a long-pass filter (Newport 20CGA-455) and an 8-cm water filter to cut off undesirable wavelengths and heat radiation, respectively (λ > 455 nm, 15.3 mW cm^−2, 15 min, 13.7 J cm^−2). Cellular viability was measured after an additional 24 h by the above-mentioned NR uptake assay. At least four independent experiments, each in triplicate, were performed.
(§4) The concentrations of the studied compounds that induced a 50% decrease in cellular viability after treatment under the dark conditions (TC50, the median toxic concentration) or after the photodynamic treatment (EC50, the median effective concentration) were calculated using GraphPad Prism software (version 9.1.2; GraphPad Software, Inc., San Diego, CA, USA) for each independent experiment. The data are presented as the means ± standard deviations of these values.

[2] = system: human cervical carcinoma (HeLa) cells; assay: as above; format: cell-based; conditions: for EC50: Homo sapiens, light or radiation study, HeLa, 12 h incubation, λ > 455 nm, 15.3 mW cm−2, 15 min, 13.7 J cm−2; for PDT activity improved over S3AlOHPc (fold): comparison with literature value of S3AlOHPc (ref 37); for EC50 higher than temoporfin (fold): comparison with literature value of temoporfin (ref 37)
Procedure: as §1, §2, §3, §4

SK-MEL-28 cells = assay: Dark toxicity (without irradiation), Neutral Red uptake; format: cell-based, human; conditions: 24 h in the dark, compounds precipitated over listed values
Procedure: as §1, §2
To assess dark toxicities (inherent toxicities of the studied compounds without irradiation), SK-MEL-28 cells were treated with studied PSs for 24 h in the dark. Viability was evaluated after two washing steps using the Neutral Red (NR; Sigma-Aldrich (Merck, Darmstadt, Germany) uptake assay, based on the ability of the living cells to incorporate NR into their intact lysosomes (concentration of NR in cell culture medium was 30 μg/mL and incubation time with NR was 2 h). The absorbance of soluble NR in cell lysate was measured at λ = 540 nm using a Tecan Infinite 200 M plate reader (Tecan, Männedorf, Switzerland). The viability of each experimental group was expressed as the percentage of the untreated controls incubated under the same conditions (100%). After staining (before lysis), the cells were briefly investigated under the microscope to verify changes in cellular morphology and the presence of NR in lysosomes (orange-red spots in the cells). These observations were in agreement with NR measurements.
as §4

[3] = Absorption and fluorescence measurements (quantum yield, lifetime); format: physicochemical; conditions: MeOH; for extinction coefficient (log ε): at λmax; for fluorescence quantum yield, absolute method (ΦF(absol)): integrating sphere; for fluorescence quantum yield, relative method (ΦF(relat)): rhodamin-G6 as reference; for fluorescence lifetime (τF): λexc = 506.1 nm
Procedure: The singlet oxygen quantum yields (ΦΔ) and the fluorescence quantum yields (ΦF) of tested samples in MeOH were determined using published comparative (relative) methods with rhodamin-G6 used as a reference for fluorescence (ΦF = 0.94 in EtOH [31]), and bengal rose as a reference for singlet oxygen determinations (ΦΔ = 0.76 in MeOH [32]). Singlet oxygen measurements were performed with 1,3-diphenylisobenzofuran as the chemical scavenger of singlet oxygen by monitoring its decomposition at 417 nm. The ΦF values were also determined by an absolute method using an integrating sphere in an FLS1000 fluorimeter (Edinburgh Instruments, Edinburgh, UK). Fluorescence lifetimes were measured on the same fluorimeter upon excitation by HPL510 laser (Edinburgh Instruments, λ = 506.1 nm).

Compound	TC50/EC50, phototherapeutic index [1]	EC50 [1] [nM]	EC50 [2] [nM]	TC50, dark toxicity (SK-MEL-28 cells)	absorption maximum (λmax) [3] [nm]	emission maximum (λF) [3] [nm]	extinction coefficient (log ε) [3]	fluorescence quantum yield, absolute method (ΦF(absol)) [3]	fluorescence quantum yield, relative method (ΦF(relat)) [3]	fluorescence lifetime (τF) [3] [ns]	PDT activity improved over S3AlOHPc (fold) [2] [×]	EC50 higher than temoporfin (fold) [2] [×]
CC1=C(I)C(C)=[N+]2C1=C(c1ccc(OCCCCCCCCN3C(=O)c4ccccc4C3=O)cc1)c1c(C)c(I)c(C)n1[B-]2(F)F [3b, 2,6-Diiodo-1,3,5,7-tetramethyl-8-{4-[8-(phthalimidyl)octyloxy]phenyl}-4,4-difluoro-4-bora-3a,4a-diaza-s-indacene]	>8.13	1230 ± 140	1570 ± 330	>10 ^b μM	530	547	3.70	0.030	0.023	0.17	–	–
CC1=C(Br)C(C)=[N+]2C1=C(c1ccc(OCCCCCCCCN3C(=O)c4ccccc4C3=O)cc1)c1c(C)c(Br)c(C)n1[B-]2(F)F [4b, 2,6-Dibromo-1,3,5,7-Tetramethyl-8-{4-[8-(phthalimidyl)octyloxy]phenyl}-4,4-difluoro-4-bora-3a,4a-diaza-s-indacene]	>45.5	220 ± 50	370 ± 70	>10 ^b μM	523	538	4.04	0.23	0.22	1.54	10	3
CC1=C(I)C(C)=[N+]2C1=C(c1ccc(OCCCCCN3C(=O)c4ccccc4C3=O)cc1)c1c(C)c(I)c(C)n1[B-]2(F)F [3a, 2,6-Diiodo-1,3,5,7-tetramethyl-8-{4-[5-(phthalimidyl)pentyloxy]phenyl}-4,4-difluoro-4-bora-3a,4a-diaza-s-indacene]	>192	52 ± 10	140 ± 10	>10 ^b μM	530	546	4.36	0.022	0.024	0.17	10	3
CC1=C(Br)C(C)=[N+]2C1=C(c1ccc(OCCCCCN3C(=O)c4ccccc4C3=O)cc1)c1c(C)c(Br)c(C)n1[B-]2(F)F [4a, 2,6-Dibromo-1,3,5,7-tetramethyl-8-{4-[5-(phthalimidyl)pentyloxy]phenyl}-4,4-difluoro-4-bora-3a,4a-diaza-s-indacene]	>123	81 ± 23	210 ± 20	>10 ^b μM	525	540	4.72	0.21	0.19	1.37	10	3
CC1=CC(C)=[N+]2C1=C(c1ccc(OCCCCCCCCN3C(=O)c4ccccc4C3=O)cc1)c1c(C)cc(C)n1[B-]2(F)F [2b, 1,3,5,7-Tetramethyl-8-{4-[8-(phthalimidyl)octyloxy]phenyl}-4,4-difluoro-4-bora-3a,4a-diaza-s-indacene]	>2.64	3790 ± 200	2400 ± 530	>10 ^b μM	498	507	4.96	0.44	0.42	2.88	–	–
CC1=CC(C)=[N+]2C1=C(c1ccc(OCCCCCN)cc1)c1c(C)cc(C)n1[B-]2(F)F [5a, 1,3,5,7-Tetramethyl-8-[4-(5-aminopentyloxy)phenyl]-4,4-difluoro-4-bora-3a,4a-diaza-s-indacene]	>2.78	3600 ± 660	9400 ± 700	>10 ^b μM	498	507	4.90	0.43	0.44	3.25	–	–
CC1=CC(C)=[N+]2C1=C(c1ccc(OCCCCCCCCN)cc1)c1c(C)cc(C)n1[B-]2(F)F [5b, 1,3,5,7-Tetramethyl-8-[4-(8-aminooctyloxy)phenyl]-4,4-difluoro-4-bora-3a,4a-diaza-s-indacene]	>4.13	2420 ± 460	1570 ± 330	>10 ^b μM	498	507	4.00	0.50	0.47	3.22	–	–
